Like-named read-outs stand apart in the source and are kept apart here.
How the values were obtained:
A2780 cells = assay: (Photo-)cytotoxicity on 2D cell monolayers, resazurin assay; type: cell-based, human; settings: A2780, normoxic, dark, 4 h exposure, total 48 h incubation, read-out: IC50 Dark
Description: (§1) The 2D cytotoxicity and phototoxicity profiles of Os‐Pt‐Cer and controls, were evaluated in a panel of cancerous cell lines, including A2780 (ovarian carcinoma), A549 (non‐small cell lung carcinoma), and MCA205 (murine fibrosarcoma), as well as a non‐cancerous retinal pigment epithelial cell line (RPE‐1). Cells were treated with the compounds (0.003–100 µM) for 4 h, either kept in the dark or irradiated at 670 nm (13.5 J cm^− ^2) (Table S4 and Figure S22) or 740 nm (12.6 J cm^− ^2) and viability was assessed 44 h post‐treatment. To verify robustness, the incubation was extended to 72 h. […]
(§2) Human ovarian cancer (A2780) cells and mouse fibrosarcoma cells (MCA205) were cultured in RPMI media. Retinal pigment epithelium (RPE -1) cells were cultured in DMEM/F -12 medium. Lung cancer cells (A549) were cultured in F -12K medium. These cell lines were complemented with 10% of fetal bovine serum, 100 U/mL penicillin -streptomycin mixture, and maintained in a humidified atmosphere […]
(§3) (Photo-)cytotoxicity on 2D cell monolayers
(§4) The cytotoxicity of the compounds was assessed by measuring cell viability using a resazurin assay.
(§5) The cells were seeded in triplicates in 96 well plates with a density of 10 4 cells per well in 100 μL of media. After 24 h, the medium was removed, and the cells were treated with increasing concentrations (0.003 → 100 µM) of the compounds diluted in cell media , achieving a total volume of 100 μL/well.
(§6) The cells were incubated with the compound for 4 h (final incubation time 48 h) or 24 h (final incubation time 72 h). After this time, the media was removed and replaced with 100 μL of fresh medium. For the phototoxicity studies, the cells were exposed to light with an Atlas Photonics LUMOS BIO irradiation system. Each well was constantly irradiated at 670 nm (60 min, 13.50 J·cm-2) or 740 nm (60 min, 12.60 J·cm-2). During the irradiation, the temperature of the plate was maintained at 37 °C. The cells were grown in the incubator for an additional 44 or 48 h, respectively. For the determination of the dark cytotoxicity, the cells were not irradiated and after the medium exchange directly incubated for 44 h.
(§7) After this time, the medium was replaced with fresh medium containing resazurin (0.2 mg/mL). After […]
(§8) 4 h of incubation, the conversion of resazurin into resorufin was determined upon excitation at 540 nm and measurement of its emission at 590 nm using a Cytation 5 Imaging Reader from BioTek. The obtained data was analysed with the GraphPad Prism software […]
(§9) After 24 h of incubation at 37 °C, 5% CO 2, plates were read using a SpectraMaxM2 Microplate Reader ( λexc = 540 nm; λread = 590 nm). Fluorescence data were normalised, and data were fitted using GraphPad Prism Software, and IC 50 was calculated by non - linear regression. Changes in the size and shape of MCTS were monitored every 24 h using Cytation 5 Imaging Reader from BioTek, objective x4.
(§10) Intracellular distribution by confocal fluorescence microscopy
(§11) 10^4 cells/well (A2780 cells) were seeded in complete medium (RPMI) in µ -slide 8 well (Ibidi) (100 µl/well) and left for 24 h to attach to the bottom. Then, the culture medium was removed , and 100 µl of solution of the corresponding complexes (5 µM) was added. The complexes were incubated with the cells for 4 hours. Thereafter, the medium was removed and replaced by RPMI without phenol red , and Hoechst and MitoTracker Green were added at a final concentration of 1 µg/mL. They were incubated with the cells for 30 min in the dark at 37 °C. Images were collected in a sequential mode in a Leica TCS SP8 confocal microscope with a 60x oil immers ion objective, a line average of 4, and a format of […]
(§12) (MTG)→ 500 -550nm, and 488 nm (complexes)→ 680 -730 nm. The confocal pinhole was 1 Airy unit.
(§13) Images were analysed with LAS X Flim FCS software.
(§14) Intracellular distribution by ICP -MS

RPE‐1 cells = assay: as above; type: cell-based; settings: RPE‐1, normoxic, dark, 4 h exposure, total 48 h incubation, read-out: IC50 Dark
Description: as §1, §2, §3, §4, §5, §6, §7, §8, §9, §10, §11, §12, §13, §14

MCA205 cells = assay: as above; type: cell-based, mouse; settings: for IC50: MCA205, normoxic, 4 h exposure
Description: as §1, §2, §3, §4, §5, §6, §7, §8, §9, §10, §11, §12, §13, §14

A2780 MCTSs = assay: Growth kinetics (diameter) of spheroids; type: cell-based, human; settings: 0.5 µM, irradiated 1 h at 740 nm, after 72 h
Description: A2780 spheroids (ca. 500 µm in diameter) were treated with increasing concentrations of the compounds and after 24 h of incubation, the medium was replaced with fresh medium, and the cells were either kept in the dark or irradiated for 1 h at 740 nm. Images of the spheroids were taken every 24 h for 3 days.
Figure 4 Changes in the growth kinetics of A2780 MCTSs treated with complex Os‐Pt‐Cer, Os, ceritinib, oxaliplatin, and cisplatin at 0.5 and 5 µM for irradiated and dark groups, respectively, and non‐treated as control. Images were collected on 0, 4, 24, and 72 h after the creation of the groups. Scale bar: 1000 µm.
4 h of incubation, the conversion of resazurin into resorufin was determined upon excitation at 540 nm and measurement of its emission at 590 nm using a Cytation 5 Imaging Reader from BioTek. The obtained data was analysed with the GraphPad Prism software
MCTS were cultured using ultra-low attachment 96 wells plates from Corning (Fisher Scientific 15329740). A2780 cells were seeded at a density of 1,500 cells per well in 100 μL of RPMI. Within 2-3 days, MCTSs have approximately 500 μm of diameter. The formation as well as integrity and diameter of the MCTSs were monitored by microscopy.
(Photo-)cytotoxicity on 3D multicellular tumor spheroids (MCTS) […]
Intracellular distribution by confocal fluorescence microscopy […]
Images were analysed with LAS X Flim FCS software. […]

[1] = Mus musculus, MCA-205, dark, total 48 h incubation, read-out: IC50 Dark

Cc1cc(Nc2ncc(Cl)c(Nc3ccccc3S(=O)(=O)C(C)C)n2)c(OC(C)C)cc1C1CCNCC1 [Ceritinib]
IC50 (A2780 cells; Homo sapiens): 2.61 ± 0.5 µM | IC50 (RPE‐1 cells; Homo sapiens): 4.76 ± 0.2 µM | IC50 (MCA205 cells; [1]): 6.97 ± 0.7 µM | change of MCTS diameter (A2780 MCTSs): increased with time

C=Cc1c(C)c2cc3nc(c(CC(=O)O)c4[nH]c(cc5nc(cc1[nH]2)C(C)=C5CC)c(C)c4C(=O)O)[C@@H](CCC(=O)O)[C@@H]3C [Ce6, Chlorin e6]
PI (IC50 dark/IC50 irradiation 740 nm) (MCA205 cells; MCA205): ≥53 | IC50 (MCA205 cells; Mus musculus, MCA-205, 740 nm (60 min, 12.60 J·cm^−2), total 48 h, read-out: IC50 Irrad. 740 nm): 1.88 ± 0.2 µM | IC50 (MCA205 cells; [1]): > 100 µM

O=C1[O][Pt]2([NH][C@@H]3CCCC[C@H]3[NH]2)[O]C1=O [Oxaliplatin]
IC50 (A2780 cells): 46.15 ± 0.2 µM | IC50 (RPE‐1 cells): > 100 µM | IC50 (MCA205 cells; dark, total 48 h incubation, read-out: IC50 Dark): 0.8 ± 0.09 µM | change of MCTS diameter (A2780 MCTSs): increased with time
